Test results as given in paper PMC9674596, “Origin of acetylcholine antagonism in ELIC, a bacterial pentameric ligand-gated ion channel” (Communications Biology, 2022).

Legend:
Format in all cases: cell-based, Erwinia chrysanthemi
wild-type ELIC = biological target: T1, wild-type ELIC (Dickeya chrysanthemi, UniProt P0C7B7, INS163G); assay: Two-electrode voltage clamp, whole-cell currents of wild-type ELIC expressed in Xenopus laevis oocytes; conditions: for IC50: ACh IC50, WT ELIC
T1 construct: expressed in transfected cells; host or cells: Xenopus laevis oocytes injected with cRNA from ELIC-pTLN
Procedure: (§1) Stage V-VI Xenopus laevis oocytes were isolated[72] and deflocculated enzymatically in ND96 buffer without Ca^2+ (96 mM NaCl, 2 mM KCl, 1 mM MgCl2, 2 mM pyruvate, 5 mM HEPES, pH 7.4), but supplemented with 1 mg/mL collagenase B and 1 mg/mL trypsin inhibitor, for 2 h at room temperature under constant stirring. The deflocculation buffer was then gradually removed by washing the oocytes in ND96 buffer (96 mM NaCl, 2 mM KCl, 1 mM MgCl2, 1 mM CaCl2, 2 mM pyruvate, 5 mM HEPES, pH 7.4) for several iterations. The oocytes were then allowed to stir for an additional hour at room temperature under constant stirring with the buffer being periodically replaced until clear. To obtain optimal receptor expression, individually selected and healthy oocytes were injected with 0.2 ng cRNA for wild-type ELIC and 5 ng cRNA for mutants. Subsequently, oocytes were incubated for one day at 16 °C in ND96^+ buffer (96 mM NaCl, 2 mM KCl, 1 mM MgCl2, 1 mM CaCl2, 2 mM pyruvate, and 5 mM HEPES at pH 7.6). After expression, injected oocytes were placed in a RC-1Z oocyte chamber (Harvard Apparatus; Hamden, CT) containing buffer (pH 7.4) composed of 150 mM NaCl, 0.5 mM BaCl2, 10 mM HEPES, and 1 mM dithiothreitol or 1 µM atropine if cysteamine, or ACh, was used in the experiment, respectively. The presence of the reducing agent, dithiothreitol, ensures that the sulfhydryl group of cysteamine remains reduced.
(§2) Once in the oocyte chamber, whole-cell currents were recorded using a two-electrode voltage-clamp apparatus (OC-725C oocyte clamp; Harvard Apparatus), with a buffer flow rate of 5–10 mL min^−1. Currents in response to various additions of cysteamine and/or ACh, were measured with the transmembrane voltage clamped at −60 mV. Dose response curves for each wild-type and mutant ELIC were acquired from at least five oocytes in two different batches. […]

ELIC Y38W = ELIC Y38W (Dickeya chrysanthemi, UniProt P0C7B7, Y38W); assay: Two-electrode voltage clamp, Y38W mutant ELIC expressed in Xenopus laevis oocytes
Procedure: as §1, with “After expression, injected oocytes were placed in a RC-1Z oocyte chamber (Harvard Apparatus; Hamden, CT) containing buffer (pH 7.4) composed of 150 mM NaCl, 0.5 mM BaCl2, 10 mM HEPES, and 1 mM dithiothreitol or 1 µM atropine if cysteamine, or ACh, was used in the experiment, respectively. The presence of the reducing agent, dithiothreitol, ensures that the sulfhydryl group of cysteamine remains reduced.” left out
as §2, with “mV.” for “mV. Dose response curves for each wild-type and mutant ELIC were acquired from at least five oocytes in two different batches.”

ELIC A75D = biological target: T2, ELIC A75D (Dickeya chrysanthemi, UniProt P0C7B7, A75D/INS163G); assay: Two-electrode voltage clamp, A75D mutant ELIC expressed in Xenopus laevis oocytes
T2 construct: expressed in transfected cells; host or cells: Xenopus laevis oocytes injected with cRNA from ELIC-pTLN

ELIC F133W = ELIC F133W (Dickeya chrysanthemi, UniProt P0C7B7, F133W); assay: cell-based
Procedure: as §1, with “After expression, injected oocytes were placed in a RC-1Z oocyte chamber (Harvard Apparatus; Hamden, CT) containing buffer (pH 7.4) composed of 150 mM NaCl, 0.5 mM BaCl2, 10 mM HEPES, and 1 mM dithiothreitol or 1 µM atropine if cysteamine, or ACh, was used in the experiment, respectively. The presence of the reducing agent, dithiothreitol, ensures that the sulfhydryl group of cysteamine remains reduced.” left out
as §2, with “mV.” for “mV. Dose response curves for each wild-type and mutant ELIC were acquired from at least five oocytes in two different batches.”

SMILES	IC50 (wild-type ELIC; inhibition of GABA-activated current, GABA at its EC50 (2.7 mM)) [mM]	IC50 (wild-type ELIC; inhibition of cysteamine-activated current, cysteamine at its EC50 (0.6 mM)) [mM]	IC50 (ELIC Y38W) [mM]	IC50 (ELIC A75D) [mM]	IC50 (ELIC F133W) [mM]	EC50 (wild-type ELIC) [mM]
CC(=O)OCC[N+](C)(C)C [ACh, acetylcholine]	1.1 ± 0.2	1 ± 0.2	0.4 ± 0.1	7 ± 2	8 ± 2	–
NCCCC(=O)O [GABA, γ-aminobutyric acid]	–	–	–	–	–	2.7 ± 0.3
